Laboratory results reported in US20260133193A1, “COMPOSITIONS AND METHODS FOR TREATING INFLAMMATORY DISEASES” (University of Washington, priority 2018, published 2026).

How the values were obtained:
Assay type in all cases: cell-based, human
neutrophils = experiment: ROS analysis in neutrophils (DHR123, OxyBURST); details: flow cytometry and fluorimetry, cell impermeable ROS dye
ncf1 (p47 phox) = experiment: p47 phox (ncf1) S345 phosphorylation, phosphoproteomics and Western blot; details: R848 activation
Description: Another target of TLR7/8 stimulation was ncf1 (p47 phox). Ncf1 was phosphorylated at S345, a known target site involved in activation of the NADPH oxidase complex. […] The experiment was repeated three times; combined results were compared using paired t test (P=0.044). Neutrophils were incubated with R848 in the absence or presence of the PI3K inhibitor Ly294002 and analyzed for pS345 or total levels of p47 phox using Western Blot. The experiment was repeated four times; combined results were compared using paired t test (No stim, P=0.03; R848+LY294002, P=0.0011). […] Briefly, neutrophils were treated with inhibitors of NADPH oxidase prior to addition of R848 and analyzed for cell surface expression of FcgRIIA by flow cytometry. […] Briefly, neutrophils from healthy individuals (HV, n=18) and CGD patients (n=4) were stimulated with R848 and analyzed for FcgRIIA levels by flow cytometry. The data were analyzed using paired t test (HC, P<0.0001) and unpaired t test (HC vs CGD, P=0.0097). Neutrophils from healthy individuals (HV, n=13) and CGD patients (n=3) were activated by R848 and analyzed for CD66b expression by flow cytometry using paired t test (HC, P<0.0001; CGD, P=0.039). […] Briefly, neutrophils were activated with LPS or PAM3CSK4 in presence of DPI and analyzed for FcgRIIA levels by flow cytometry. […]

Akt and S6 = experiment: S6 and Akt phosphorylation by flow cytometry; details: TLR7/8 activation with R848
Description: We next asked which pathway(s) were acting upstream of NADPH oxidase to induce FcgRIIA shedding. […] Phosphorylation of Akt and S6 was determined by flow cytometry upon TLR7/8 activation. The experiment was repeated four times; combined results were compared using paired t test (pS6, P=0.042; pAkt, P=0.037). […] To confirm the role for PI3K in TLR-mediated activation of ROS and subsequent shedding of FcgRIIA, neutrophils were incubated with the PI3K inhibitor LY294002 prior to addition of TLR agonist. Blocking PI3K signaling abrogated TLR-mediated ROS generation, phosphorylation of ncf1 at S345 as well as shedding of FcgRIIA. Briefly, neutrophils, pre-treated with inhibitors of PI3K (LY294002, 10 μM) or NADPH oxidase (DPI, 25 μM), were activated with R848 and analyzed for ROS generation by flow cytometry using DHR123. […] Additionally, neutrophils were pre-treated with the PI3K inhibitor LY294002 (10 μM) and analyzed for R848-mediated shedding of FcgRIIA by flow cytometry. […]
Neutrophils were activated by R848 for 15 minutes, fixed and permeabilized according to manufacturer's instructions (BioLegend), and incubated with a specific antibody recognizing phosphorylated S235/236 in S6 (Cell Signaling) or phosphorylated S473 in Akt (BD Biosciences) for 60 minutes. pS6 and pAkt levels were analyzed by flow cytometry and expressed as percent positive cells as compared to non-stimulated cells.

monocytes = experiment: Monocyte phagocytosis of RNP-ICs; details: RNase exposure or R848 priming
Description: Monocytes were incubated with R848 or neutrophil supernatant prior to addition of RNP-ICs or beads. Phagocytosis was determined by flow cytometry.
SLE IgG, SmRNP and heat-aggregated IgG (HAGG) were labeled with Alexa-647 according to manufacturer's protocol (Life Technologies). Neutrophils, or PBMCs, from healthy individual were stimulated with different ICs, FITC-conjugated latex beads or zymosan (100 μg/mL, Life Technologies) for 30 minutes at 37° C. and immediately analyzed for phagocytosis. […] In some experiments, R848, at a concentration of 2 μg/mL, or neutrophil supernatant, was added 30 and 90 minutes before addition of the phagocytic stimuli, respectively.
Plasmacytoid dendritic cells were identified based on their expression of BDCA-4 (Miltenyi Biotech) and monocytes based on their expression of CD14 (Biolegend). In some experiments neutrophil supernatant (generated by incubating neutrophils with R848 for 90 minutes) were added to PBMCs with or without presence of the pan-protease inhibitor (1×), and expression of FcgRs and phagocytic ability analyzed in monocytes by flow cytometry as described above.

## CCOCc1nc2c(N)nc3ccccc3c2n1CC(C)(C)O [R848]
neutrophils
  cellular localization of ROS generation: induced intracellular generation of ROS, but no detectable extracellular ROS
ncf1 (p47 phox)
  phosphorylation of ncf1 (p47 phox) at S345: phosphorylated (p47 phox) at S345
Akt and S6
  levels of phosphorylated Akt and S6: induced increased levels of phosphorylated Akt and S6
monocytes
  monocyte phagocytosis of RNP-ICs: not affected
